Laboratory results: the NIST ThermoML archive (doi:10.1021/je800077r)

Legend:
[1] = xn = mol fraction of the nth substance listed; conditions: 101 kPa, Liquid; for speed of sound: Sing-around technique in a fixed-path interferometer; for mass density: Vibrating tube method
[2] = refractive index (Na D-line) (dimensionless); xn = mol fraction of the nth substance listed; conditions: 101 kPa, Liquid, Standard Abbe refractometry

CCCCCCn1cc[n+](C)c1.F[P-](F)(F)(F)(F)F [1-hexyl-3-methylimidazolium hexafluorophosphate] + CCOC(C)=O
Conditions	mass density, 293.15 K [kg/m3]	mass density, 298.15 K [kg/m3]	mass density, 303.15 K [kg/m3]	refractive index, 293.15 K	refractive index, 298.15 K	refractive index, 303.15 K	speed of sound, 293.15 K [m/s]	speed of sound, 298.15 K [m/s]	speed of sound, 303.15 K [m/s]
[1], x1 = 0.0506	952.6	946.8	941	–	–	–	1185	1163	1142
[1], x1 = 0.104	998.7	993.2	987.6	–	–	–	1210	1189	1169
[1], x1 = 0.1978	1063.8	1058.6	1053.4	–	–	–	1252	1233	1215
[1], x1 = 0.2924	1114.6	1109.8	1104.9	–	–	–	1288	1271	1254
[1], x1 = 0.4549	1179.7	1175.2	1170.5	–	–	–	1335	1320	1305
[1], x1 = 0.4974	1193.3	1188.9	1184.2	–	–	–	1346	1331	1317
[1], x1 = 0.5904	1219.5	1215.2	1210.7	–	–	–	1366	1352	1338
[1], x1 = 0.7015	1245.8	1241.5	1237.2	–	–	–	1387	1374	1361
[1], x1 = 0.7926	1263.8	1259.8	1255.6	–	–	–	1403	1390	1378
[1], x1 = 0.8941	1281.6	1277.6	1273.8	–	–	–	1420	1407	1395
[1], x1 = 0.9459	1289.8	1285.8	1282	–	–	–	1429	1415	1403
[1], x1 = 1	1297.9	1293.7	1289.6	–	–	–	1438	1424	1411
[2], x1 = 0.0506	–	–	–	1.38064	1.37838	1.37606	–	–	–
[2], x1 = 0.104	–	–	–	1.3874	1.38537	1.38312	–	–	–
[2], x1 = 0.1978	–	–	–	1.39645	1.39415	1.39194	–	–	–
[2], x1 = 0.2924	–	–	–	1.402	1.40007	1.39821	–	–	–
[2], x1 = 0.4549	–	–	–	1.40845	1.4069	1.40523	–	–	–
[2], x1 = 0.4974	–	–	–	1.40969	1.40821	1.40664	–	–	–
[2], x1 = 0.5904	–	–	–	1.41237	1.41083	1.40893	–	–	–
[2], x1 = 0.7015	–	–	–	1.41438	1.41296	1.4115	–	–	–
[2], x1 = 0.7926	–	–	–	1.41592	1.41446	1.41307	–	–	–
[2], x1 = 0.8941	–	–	–	1.41731	1.41594	1.41454	–	–	–
[2], x1 = 0.9459	–	–	–	1.41797	1.41662	1.41526	–	–	–
[2], x1 = 1	–	–	–	1.41923	1.41787	1.41643	–	–	–

CCOC(C)=O [ethyl acetate] + CCCCCC
Conditions	mass density, 293.15 K [kg/m3]	mass density, 298.15 K [kg/m3]	mass density, 303.15 K [kg/m3]	refractive index, 293.15 K	refractive index, 298.15 K	refractive index, 303.15 K	speed of sound, 293.15 K [m/s]	speed of sound, 298.15 K [m/s]	speed of sound, 303.15 K [m/s]
[1], x2 = 0	900.5	894.4	888.2	–	–	–	1162	1141	1111
[1], x2 = 0.0469	884.3	878.2	872.2	–	–	–	1152	1129	1099
[1], x2 = 0.0969	868	862	855.9	–	–	–	1141	1119	1089
[1], x2 = 0.1898	838.9	833.1	827.3	–	–	–	1125	1103	1074
[1], x2 = 0.2962	808.6	803	797.3	–	–	–	1111	1089	1061
[1], x2 = 0.3907	783.5	778	772.4	–	–	–	1101	1079	1053
[1], x2 = 0.5028	756	750.7	745.3	–	–	–	1093	1071	1046
[1], x2 = 0.598	734.5	729.3	724.1	–	–	–	1090	1067	1042
[1], x2 = 0.6995	713.1	708.1	703.1	–	–	–	1088	1066	1041
[1], x2 = 0.803	693.3	688.4	683.5	–	–	–	1089	1067	1043
[1], x2 = 0.9005	675.8	671.1	666.4	–	–	–	1093	1071	1047
[1], x2 = 0.9514	667.3	662.7	658.1	–	–	–	1096	1074	1051
[2], x2 = 0	–	–	–	1.37241	1.36977	1.36712	–	–	–
[2], x2 = 0.0469	–	–	–	1.37193	1.36926	1.3666	–	–	–
[2], x2 = 0.0969	–	–	–	1.37157	1.3689	1.36622	–	–	–
[2], x2 = 0.1898	–	–	–	1.37105	1.36832	1.36559	–	–	–
[2], x2 = 0.2962	–	–	–	1.3706	1.36785	1.36513	–	–	–
[2], x2 = 0.3907	–	–	–	1.37053	1.36776	1.365	–	–	–
[2], x2 = 0.5028	–	–	–	1.37066	1.36789	1.36511	–	–	–
[2], x2 = 0.598	–	–	–	1.37101	1.36823	1.36547	–	–	–
[2], x2 = 0.6995	–	–	–	1.3718	1.36896	1.36611	–	–	–
[2], x2 = 0.803	–	–	–	1.37266	1.3698	1.36689	–	–	–
[2], x2 = 0.9005	–	–	–	1.37381	1.37096	1.36803	–	–	–
[2], x2 = 0.9514	–	–	–	1.3744	1.37157	1.36866	–	–	–
